Test results as given in patent US20120202693A1 (DOW AGROSCIENCES LLC, priority 2011, published 2012).
Where “and” joins values, the source holds several entries; their conditions need not be identical. Equal values may be shown once.

Key:
Format in all cases: in vivo
[1] = test system: morningglory (Ipomoea hederacea, IPOHE); assay: Postemergence herbicidal activity of mixtures in the greenhouse, visual weed control; details: 16 days after application
Procedure: (§1) Evaluation of Postemergence Herbicidal Activity of Mixtures in the Greenhouse
(§2) Seeds of the desired test plant species were planted in 80% mineral soil/20% grit planting mixture, which typically has a pH of 7.2 and an organic matter content of about 2.9 percent, in plastic pots with a surface area of 128 square centimeters (cm^2). The growing medium was steam sterilized. The plants were grown for 7-19 days in a greenhouse with an approximate 14-hour (h) photoperiod which was maintained at about 29° C. during the day and 26° C. during the night. Nutrients and water were added on a regular basis and supplemental lighting was provided with overhead metal halide 1000-Watt lamps as necessary. The plants were treated with postemergence foliar applications when they reached the second to fourth true leaf stage. All treatments were applied using a randomized complete block trial design, with 4 replications per treatment.
(§3) Compound requirements are based upon a 12 mL application volume at a rate of 187 liters per hectare (L/ha). Spray solutions of the mixtures were prepared by adding the stock solutions to the appropriate amount of dilution solution to form 12 mL spray solution with active ingredients in single and two way combinations. Formulated compounds were applied to the plant material with an overhead Mandel track sprayer equipped with 8002E nozzles calibrated to deliver 187 L/ha at a spray height of 18 inches ([…] (cm)) above average plant canopy. The weed spectrum included broadleaf signalgrass (Brachiaria platyphylla, BRAPP), yellow nutsedge (Cyperus esculentus, CYPES), barnyardgrass (Echinochloa crus-galli, ECHCG), momingglory (Ipomoea, hederacea, IPOHE), and Chinese sprangletop (Leptochloa chinensis, LEFCH).
(§4) The treated plants and control plants were placed in a greenhouse as described above and watered by sub-irrigation to prevent wash-off of the test compounds. Treatments were rated at 16 days after application (DAA) as compared to the untreated control plants. Visual weed control was scored on a scale of 0 to 100 percent where 0 corresponds to no injury and 100 corresponds to complete kill.
(§5) Colby's equation was used to determine the herbicidal effects expected from the mixtures (Colby, S. R. Calculation of the synergistic and antagonistic response of herbicide combinations. Weeds 1967 15, 20-22).
(§6) The following equation was used to calculate the expected activity of mixtures containing two active ingredients, A and B:
(§7) A=observed efficacy of active ingredient A at the same concentration as used in the mixture;
(§8) B=observed efficacy of active ingredient B at the same concentration as used in the mixture.

[2] = test system: Chinese sprangletop (Leptochloa chinensis, LEFCH); assay: as above; details: 16 days after application
Procedure: as §1, §2, §3, §4, §5, §6, §7, §8

[3] = test system: broadleaf signalgrass (Brachiaria platyphylla, BRAPP); assay: as above; details: 16 days after application
Procedure: as §1, §2, §3, §4, §5, §6, §7, §8

[4] = test system: ryegrass (Lolium spp, LOLSS); assay: Postemergence herbicidal activity of mixtures under field conditions (vines), visual weed control; details: 61 days after application
Procedure: (§9) Evaluation of Postemergence Herbicidal Activity of Mixtures under Field Conditions Methodology
(§10) Trial site was located in commercially grown vines of European grape (Vitis vinifera). The trial was conducted using normal research methodology. Trial plots were between 2 m wide by […] long. All treatments were applied using a randomized complete block trial design with 3 replications per treatment. The trial sites had naturally occurring populations of weeds. The weed spectrum included, but was not limited to, ryegrass (Lolium spp, LOLSS), scented mayweed (Matricaria chamomilla, MATCH), and annual bluegrass (Poa annua, POAAN).
(§11) Treatments consisted of tank mixes of an oil dispersion of penoxsulam and commercially available formulation of glyphosate applied in water. The application volume was 250 liters per hectare (L/ha). Application was made using a precision gas hand sprayer at 250 kPA pressure using a 2 m boom with flat fan (80015VS) nozzles to broadcast the treatments to the weeds and to the soil.
(§12) […] Ratings were based on Percent (%) Visual weed control, where 0 corresponds to no control and 100 corresponds to complete control.
as §5, §6, §7, §8

[5] = test system: annual bluegrass (Poa annua, POAAN); assay: as above; details: 27 days after application
Procedure: as §9, §10, §11, §12, §5, §6, §7, §8

[6] = test system: scented mayweed (Matricaria chamomilla, MATCH); assay: as above; details: 27 days after application
Procedure: as §9, §10, §11, §12, §5, §6, §7, §8

[7] = test system: barnyardgrass (Echinochloa crus-galli, ECHCG); assay: Postemergence herbicidal activity of mixtures in the greenhouse, visual weed control; details: 16 days after application
Procedure: as §1, §2, §3, §4, §5, §6, §7, §8

[8] = test system: yellow nutsedge (Cyperus esculentus, CYPES); assay: as above; details: 16 days after application
Procedure: as §1, §2, §3, §4, §5, §6, §7, §8

[9] = Glyphosate (IPA salt) 210 grams ai/ha alone
[10] = Glyphosate 720 grams ai/ha alone
[11] = Penoxsulam 1.3 grams ai/ha alone
[12] = Penoxsulam 2.5 grams ai/ha alone
[13] = Penoxsulam 10 grams ai/ha alone
[14] = Penoxsulam 20 grams ai/ha alone

In the case of O=C(O)CNCP(=O)(O)O [Glyphosate, N-(phosphonomethyl)glycine], the “IPOHE Obs (Observed control)” value [1, 9] is reported as 31%, the “LEFCH Obs (Observed control)” value ([2]; Glyphosate (IPA salt) 53 grams ai/ha alone) is reported as 1% and the “LEFCH Obs (Observed control)” value [2, 9] is reported as 41%. The “BRAPP Obs (Observed control)” value ([3]; Glyphosate (IPA salt) 110 grams ai/ha alone) was 15%, the “LOLSS Obs (Observed control)” value [4, 10] was 60% and the “POAAN Obs (Observed control)” value [5, 10] was 93%. For the same compound, the “MATCH Obs (Observed control)” value [6, 10] was 50%.

In the case of COc1cnc(OC)n2nc(NS(=O)(=O)c3c(OCC(F)F)cccc3C(F)(F)F)nc12 [Penoxsulam, 2-(2,2-difluoroethoxy)-N-(5,8-dimethoxy-[1,2,4]triazolo[1,5-c]pyrimidin-2-yl)-6-(trifluoromethyl)benzenesulfonamide], the “ECHCG Obs (Observed control)” value [7, 11] is reported as 63%, the “ECHCG Obs (Observed control)” value [7, 12] is reported as 62% and the “IPOHE Obs (Observed control)” value [1, 11] is reported as 16%. The “IPOHE Obs (Observed control)” value [1, 12] was 31%, the “IPOHE Obs (Observed control)” value ([1]; Penoxsulam 5 grams ai/ha alone) was 31% and the “IPOHE Obs (Observed control)” value [1, 13] was 31%. For the same compound, the “CYPES Obs (Observed control)” value [8, 11] was 5.8% and 6%, the “CYPES Obs (Observed control)” value [8, 12] was 31.8% and 32% and the “CYPES Obs (Observed control)” value ([8]; Penoxsulam 5 grams ai/ha alone) was 44%. The “CYPES Obs (Observed control)” value [8, 13] was 65%, the “LEFCH Obs (Observed control)” value [2, 11] was 5% and the “LEFCH Obs (Observed control)” value [2, 12] was 1%. The “LEFCH Obs (Observed control)” value ([2]; Penoxsulam 5 grams ai/ha alone) was 2%, the “LEFCH Obs (Observed control)” value [2, 13] was 6.3% and 6% and the “BRAPP Obs (Observed control)” value [3, 11] was 9%. The “BRAPP Obs (Observed control)” value [3, 12] was 10%, the “BRAPP Obs (Observed control)” value ([3]; Penoxsulam 5 grams ai/ha alone) was 4% and the “LOLSS Obs (Observed control)” value [4, 14] was 0%. For the same compound, the “POAAN Obs (Observed control)” value [5, 14] was 0% and the “MATCH Obs (Observed control)” value [6, 14] was 0%.
